Assay results reported in patent publication US20240049994A1, “ONE-TOUCH FINGERTIP SWEAT SENSOR AND PERSONALIZED DATA PROCESSING FOR RELIABLE PREDICTION OF BLOOD BIOMARKER CONCENTRATIONS” (THE REGENTS OF THE UNIVERSITY OF CALIFORNIA, priority 2021, published 2024).

Assays:
[1] = Touch-based fingertip sweat L-Dopa monitoring after L-Dopa/C-Dopa pill intake; type: in vivo, human; details: oral L-Dopa/C-Dopa (100:25 mg) pill
Excerpt: The disclosed technology can be implemented in some embodiments to provide an individualized therapeutic drug monitoring for PD patients, centered on dynamic non-invasive tracking pharmacokinetic profiles of L-Dopa levels in the secreted sweat upon intake of standard pill formulations. Sweat is a non-invasively retrievable biofluid containing rich information of trace-level, health-related biochemical markers. Wearable sweat sensors have shown enormous potential toward monitoring of physiological heath status (e.g., hydration), disease diagnosis and management (e.g., diabetes and gout), and therapeutic drug monitoring (e.g., pain management). However, the presence of skin as a mechanical barrier prevents an uninterrupted access to this information-rich biofluid, and thus a triggering system (i.e., physical exercise, thermal stimulation, oriontophoresis) is necessary to provide continuous access to sweat sample. […] Taking advantage of the high density of eccrine sweat glands (˜400 glands cm^2) and the consequent generation of high sweat rates, finger touch-based biosensors have recently been reported for the detection of key sweat biomarkers (e.g., glucose, vitamin C, and cortisol). Leveraging such natural thermoregulatory sweat sample, a finger-touch L-Dopa biosensor based on some embodiments of the disclosed technology can continuously monitor the dynamic profile of sweat L-Dopa upon intake of standard anti-Parkinsonian medication including L-Dopa-carbidopa (100:25 mg) (FIG. 5A(a)). […]
To gain further insight into the personalized body responses upon medication intake, the performance of the finger touch biosensor is evaluated on three different individuals while taking the same medication under identically kept conditions (FIG. 7 (a)-(c)). […]

[2] = Pharmacokinetic correlation of fingertip sweat and capillary blood L-Dopa profiles; type: in vivo, human; details: healthy subjects, after L-Dopa/C-Dopa pill, measured every 10 min
Excerpt: While the blood plasma is the ‘gold standard’ matrix for therapeutic monitoring of L-Dopa, this analysis method relies on LC-MS centralized instruments. To further confirm the reliability of the developed protocol based on touch-based sweat L-Dopa detection, the feasibility of data validation between sweat and blood samples is investigated. Two subjects performed fingertip sweat sensing in parallel to the electrochemical measurements of the finger pricked capillary blood samples, using the enzymatic L-Dopa sensor. As shown in FIG. 62 (A)-(B), the sweat sensor is able to probe and detect successfully L-Dopa fluctuations in microliter blood samples similar to the fingertip natural sweat sample. Similar temporal profiles are observed for blood and sweat experiments, with ˜10 min lag time. […] Additionally, control experiments are also carried out without pill intake (FIG. 62 (C)) and using non-enzymatic electrode (FIG. 62 (D)). In both control experiments, the current signal remained small and unchanged, which indicates the signal specificity of the fingertip touch-based sweat sensing procedure.

tyrosinase enzyme = experiment: Selectivity of tyrosinase-modified L-Dopa sensor against C-Dopa; type: biochemical
Excerpt: L-Dopa detection is achieved through coupling the tyrosinase enzyme-catalyzed L-Dopa oxidation (catecholase activity) and the subsequent electrochemical reduction of the corresponding quinone product, dopaquinone, at low potentials (FIG. 6A). The formed reaction cycle not only enhances the sensitivity through amplification of the resulting current signal but also prevents electrode fouling by inhibiting the spontaneous polymerization reactions of the unstable quinone molecules. Tyrosinase enzyme is simply immobilized on the surface of screen-printed carbon electrodes, followed by crosslinking with glutaraldehyde to prevent leaching of the enzyme (FIG. 6A). To establish the optimal potential for the L-Dopaquinone reduction, the amperometric signals obtained at various potentials, ranging from −0.1 to −0.4 V (vs. internal pseudo-reference Ag/AgCl), are compared upon addition of 10 μM L-Dopa. […] Thus, optimal potential of −0.3 V is chosen and used for subsequent in-vitro and on-body experiments. […] The reproducibility of the L-Dopa sensor is evaluated by measuring 10 μM L-Dopa concentration on six different electrodes sensors.
The performance of the sensor toward following the L-Dopa pharmacokinetics is characterized on healthy patients following the administration of L-Dopa/C-Dopa (100:25 mg) pills which are common oral medication for PD patients. […]

SMILES | time at which L-Dopa current signal starts to increase after pill intake ([1]; healthy subject) [min] | time at which sweat L-Dopa signal decreases back to background level after pill intake ([1]; healthy subject) | time of peak maximum of sweat L-Dopa signal after pill intake ([1]; healthy subjects, measured every 10 min) [min] | lag time between sweat and capillary blood L-Dopa temporal profiles [2] [min] | current relative to L-Dopa (tyrosinase enzyme; a quarter of the L-Dopa concentration (4:1 ratio as in the pill)) [%] | overall response relative to L-Dopa (tyrosinase enzyme; same concentration as L-Dopa, amperometry at -0.3 V) [%]
N[C@@H](Cc1ccc(O)c(O)c1)C(=O)O [L-Dopa, Levodopa] | 10 | one hour | 30 | ~10 | – | –
C[C@@](Cc1ccc(O)c(O)c1)(NN)C(=O)O [C-Dopa, carbidopa] | – | – | – | – | ~6 | ~20
